Test results as given in PMC10901892 (Scientific Reports, 2024).
Entries after “also recorded” stand apart in the source; their conditions may differ.

Tests used:
[1] = tested on: isolated mouse liver mitochondria; type: biochemical; details: for EC50: read-out: EC50 of uncoupling activity
[2] = biological target: T1, mitochondrial electron transport chain (complex II) (Mus musculus, UniProt Q8K2B3+Q9CQA3+Q9CXV1+Q9CZB0); type: biochemical
T1 construct: Mouse liver mitochondria were isolated by homogenization and differential centrifugation; from tissue; host or cells: liver of male C57BL/6JINV (Jax) mice; isolated mitochondria, intact or disrupted by a freeze-thaw cycle
T1 sequence (Q8K2B3 43-664): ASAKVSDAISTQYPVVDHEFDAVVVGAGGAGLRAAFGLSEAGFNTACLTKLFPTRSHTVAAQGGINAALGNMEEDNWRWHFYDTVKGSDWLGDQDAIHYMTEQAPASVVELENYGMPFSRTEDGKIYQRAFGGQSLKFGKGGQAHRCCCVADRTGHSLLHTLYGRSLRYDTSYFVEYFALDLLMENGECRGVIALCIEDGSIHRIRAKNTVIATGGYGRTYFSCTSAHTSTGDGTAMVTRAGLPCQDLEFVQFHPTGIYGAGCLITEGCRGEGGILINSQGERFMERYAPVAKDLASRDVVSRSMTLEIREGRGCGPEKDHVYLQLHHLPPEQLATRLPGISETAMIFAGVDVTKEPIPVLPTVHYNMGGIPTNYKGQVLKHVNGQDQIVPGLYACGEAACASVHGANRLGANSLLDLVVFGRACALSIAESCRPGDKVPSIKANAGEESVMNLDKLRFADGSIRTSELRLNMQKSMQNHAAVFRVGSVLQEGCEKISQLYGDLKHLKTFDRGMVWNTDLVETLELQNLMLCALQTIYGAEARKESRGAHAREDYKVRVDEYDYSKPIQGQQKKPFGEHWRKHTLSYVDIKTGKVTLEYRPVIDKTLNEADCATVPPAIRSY
T1 sequence (Q9CQA3 31-282): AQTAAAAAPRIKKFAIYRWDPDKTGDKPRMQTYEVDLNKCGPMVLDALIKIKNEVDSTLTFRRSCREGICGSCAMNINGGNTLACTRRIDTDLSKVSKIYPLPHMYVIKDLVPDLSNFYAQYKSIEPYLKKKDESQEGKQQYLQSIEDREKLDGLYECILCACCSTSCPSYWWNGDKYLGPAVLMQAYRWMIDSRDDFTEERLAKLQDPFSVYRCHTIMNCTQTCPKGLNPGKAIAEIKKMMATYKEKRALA
T1 sequence (Q9CZB0 30-169): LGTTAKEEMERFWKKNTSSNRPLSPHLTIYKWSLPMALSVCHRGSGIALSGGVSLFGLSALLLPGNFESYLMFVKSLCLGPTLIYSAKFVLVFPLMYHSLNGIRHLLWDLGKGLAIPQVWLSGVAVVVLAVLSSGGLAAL
T1 sequence (Q9CXV1 57-159): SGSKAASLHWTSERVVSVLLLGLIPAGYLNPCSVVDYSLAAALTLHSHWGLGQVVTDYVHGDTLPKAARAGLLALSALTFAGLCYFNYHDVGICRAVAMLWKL

[3] = in vivo, 5 mg/kg
[4] = In vitro metabolic stability with rat liver microsomes
[5] = Stability in aqueous 100 mM KPO4 buffer with or without GSH
rats = details: cited from earlier work
mice on high fat diet = details: mouse, in vivo, ip, 3 mg/kg
[6] = NMY1009 plasma and tissue concentrations over time by LC/MS; type: in vivo; details: mice, 5 mg/kg i.p.
Experimental: (§1) Figure 2 Determination of NMY1009 toxicity and plasma and tissue concentrations. (A) 7 treatment groups and 1 vehicle group (four mice per each group) were subjected to 7 daily administrations of the drug i.p. and well-being checks were carried out at 6 and 24 h after each treatment. No deaths or adverse reactions at any of the used NMY1009 doses were observed. (B, C) Tissue and plasma kinetics of NMY1009. Mice were injected with 5 mg/kg NMY1009 i.p. NMY1009 concentrations were measured by LC/MS.
To characterize the in vivo pharmacokinetics properties of NMY1009, we measured plasma and tissue concentrations over time after an i.p. injection of 5 mg/kg NMY1009. […] The kinetics of the tissue drug concentrations were similar compared to plasma. The observed decline in the adipose tissue concentrations may be due to drug metabolism or renal excretion. The latter possibility appears less likely as the drug concentration in the kidney was very low. […] However, the adipose tissue drug concentrations decreased over time with a half-life of approximately 3 h.
50 mg of tissue were extracted into 1000 μl of acetonitrile. The entire supernatant was dried and reconstituted into 200 μl of 1:1 acetonitrile/water.

mice = assay: NMY1009 in vivo toxicity study; details: i.p. daily, 1 to 100 mg/kg, seven days
Experimental: as §1
7 treatment groups and 1 vehicle group (four mice per each group) were subjected to 7 daily administrations of the drug i.p. NMY1009 was dissolved in 100% DMSO and the injection volume was 30 μl. Well-being checks were carried out at 6 and 24 h after each treatment. The in vivo toxicity study was carried out by Altogen Labs (Austin, TX).

[7] = aqueous buffer, ESI mass spectrometry
[8] = aqueous solution without GSH, 37 °C

O=[N+]([O-])c1ccc(O)c([N+](=O)[O-])c1 [2,4-dinitrophenol, reference compound]
EC50, fold stimulation of oxygen consumption [1]: 9600 nM
inhibitory effect on mitochondrial electron transport chain activity [2]: no inhibitory effect

CCCCCCCCOc1cc([N+](=O)[O-])c(O)c([N+](=O)[O-])c1 [2,6-dinitro-4-(octyloxy)phenol]
plasma concentration kinetics (in words) ([3]; C57BL/6, mouse): decreased rapidly with much faster kinetics compared to 2,6-dinitrophenol
drug tissue concentration, heart ([3]; mouse): BLQ
drug tissue concentration, kidney ([3]; mouse): BLQ
drug tissue concentration, liver ([3]; mouse): BLQ
health of animals during the study ([3]; mouse): healthy throughout the study duration
tissue concentrations (in words) ([3]; mouse, ip): very low
EC50, fold stimulation of oxygen consumption [1]: 3700 nM
effect on mitochondrial oxygen consumption at very high concentrations [2]: inhibited mitochondrial oxygen consumption at very high concentrations
effect on oxygen consumption with NADH as substrate [2]: minimal effect
effect on succinate-dependent oxygen consumption after disruption of the inner membrane [2]: inhibited succinate-dependent oxygen consumption

COc1ccc(NN=C(C#N)C#N)cc1 [C1-CCP]
uncoupling activity (in words) [1]: lower uncoupling activity compared to C4-CCP and C8-CCP

CCCCOc1ccc(NN=C(C#N)C#N)cc1 [C4-CCP]
EC50 [1]: ~100 nM

CCCCCCCCCCCCOc1ccc(NN=C(C#N)C#N)cc1 [C12-CCP]
uncoupling activity (in words) [1]: no activity; also recorded: low uncoupling activity

N#CC(C#N)=NNc1ccc(OC(F)(F)F)cc1 [FCCP, carbonyl cyanide p-trifluoromethoxy-phenylhydrazone, reference compound]
stability upon incubation with rat liver microsomes (in words) ([4]; presence and absence of NADPH, up to 45 min, 37 °C): stable
drug turnover in aqueous solution in the absence or presence of 0.2 mM GSH (in words) ([5]; 24 h, 37 °C, 100 mM KPO4): not metabolized significantly
incubation time at which the O-dealkylated metabolite (loss of the trifluoromethyl group) was observed [5, 7]: 24 h
doses causing adverse effects (rats): ≥ 5 mg/kg
doses causing death (rats): higher than 20 mg/kg

CCCCCCCCOc1ccc(NN=C(C#N)C#N)cc1 [NMY1009, (4-octyloxy-phenyl)carbonhydrazonoyl dicyanide]
Glucose Tolerance Test response vs vehicle (mice on high fat diet): no altered Glucose Tolerance Test response
blood glucose concentrations and other blood markers of metabolic health vs vehicle (mice on high fat diet): no significant differences in blood glucose concentrations and other blood markers of metabolic health
body composition (body weight and fat mass gains) vs vehicle (mice on high fat diet): no changes in the body composition
respiratory exchange ratio and energy expenditure vs vehicle (mice on high fat diet): no differences the respiratory exchange ratio and energy expenditure
serum adiponectin concentrations vs vehicle (mice on high fat diet): decrease in serum adiponectin concentrations
EC50 [1]: ~100 nM
tissue distribution (in words) [6]: highest drug tissue concentrations were found in the different types of adipose tissue
half-life ([6]; mouse, adipose tissue, ip, read-out: half-life of adipose tissue drug concentrations (converted)): ~180 min
Tmax ([6]; mouse, plasma, ip, read-out: time of peak plasma concentration (converted)): 30 min
half-life at 1 µM ([4]; rat, microsomes, pH 7.4): ~30 min
deaths or adverse reactions (toxicity) (mice): No deaths or adverse reactions were observed; also recorded: no toxicity
incubation time at which the dealkylated metabolite (loss of the octyl group) was observed [5, 7]: 30 min
time after which one third of the drug was turned over [5, 8]: approximately 1 h
time after which two thirds of the drug were turned over [5, 8]: 6 h
drug remaining at the end of the 24 h incubation ([5]; aqueous solution without GSH, 37 °C, 10 μM): about 18%
